Results taken from patent US9388193B2, “Dipicolylamine derivatives and their pharmaceutical uses” (National Health Research Institutes, priority 2014, dated 2016).

Columns and labels:
Colo205 cells = test: Cell viability MTS assay, Colo205; type: cell-based; details: Homo sapiens, COLO 205, 72 hours incubation
Procedure: (§1) SCM-1, MiaPaca2 and Colo205 cells were grown in RPMI 1640 (Roswell Park Memorial Institute) medium (RPMI; Gibco), supplemented with 10% fetal bovine serum (FBS; Gibco). Detroit551 cells were grown in Dulbecco's modified Eagle's medium (DMEM) supplemented with 10% FBS 50 U/mL of penicillin and streptomycin, and 1% Nonessential amino acids (NEAA; Gibco).
(§2) Zn-DPA conjugates, Zn-DPA-(8), Zn-DPA-(12), Zn-DPA-(25), Zn-DPA-(26), and Zn-DPA-(42) prepared from the corresponding compounds 8, 12, 25, 26, and 42, respectively, were used to inhibit the growth of human cancer cells (SCM-1, Colo205, MiaPaca2) and human embryonic skin fibroblast cells Detroit551 following the procedures described below.
(§3) Cell viability was examined by the MTS assay (Promega, Madison, Wis., USA). More specifically, cells were grown (2500˜3000 cells/well) in a flat bottomed 96-well plate for 24 hours. A medium was added along with a test compound at a pre-determined concentration. The cells were further incubated for 72 hours. At the end of the incubation, the medium was removed and […] with 100 μl of a 3-(4,5-dimethylthiazol-2-yl)-5-(3-carboxymethoxyphenyl)-2-(4-sulfophenyl)-2H-tetrazolium/phenazine methosulfate mixture. The cells were again incubated for 1.5 hours at 37° C. in a humidified incubator with 5% CO2 to allow viable cells to convert the tetrazolium salt into formazan. The conversion was determined by measuring the absorbance at 490 nm using a BioTek PowerWave-X Absorbance Microplate Reader.
(§4) The data obtained were normalized using a vehicle (dimethyl sulfoxide, DMSO)-treated control (100% viability) and a background control (0% viability) to verify growth inhibition. The IC50 value is defined as the concentration of a compound that induces a 50% reduction in cell viability in comparison with a vehicle-treated control. These values were calculated using GraphPad Prism version 4 software (San Diego, Calif., USA).

MiaPaca2 cells = test: Cell viability MTS assay, MiaPaca2; type: cell-based; details: Homo sapiens, MIA PaCa-2, 72 hours incubation
Procedure: as §1, §2, §3, §4

[1] = test system: human embryonic skin fibroblast Detroit 551; test: Cell viability MTS assay, Detroit 551; type: cell-based; details: 72 hours incubation
Procedure: as §1, §2, §3, §4

SCM-1 cells = test: Cell viability MTS assay, SCM-1; type: cell-based; details: Homo sapiens, 72 hours incubation
Procedure: as §1, §2, §3, §4

[2] = type: in vitro ADME; details: mouse, plasma; for Stability (percentage remaining), time = 0: 0 h
Procedure: Plasma Stability of Zn-DPA Conjugates
Zn-DPA conjugates, Zn-DPA-(8), Zn-DPA-(12), Zn-DPA-(25), Zn-DPA-(26), and Zn-DPA-(42) prepared from the corresponding compounds 8, 12, 25, 26, and 42, respectively, were incubated in mouse plasma at 37° C. for up to 24 hours to assess the stability of these conjugates.
A sample was analyzed with a High Performance Liquid Chromatography system to determine the concentration of a test conjugate at one of four time points (i.e., 0, 3 hours, 6 hours, and 24 hours). The percentages of the test conjugate remaining at 3, 6, and 24 hours after incubation in the plasma were determined. A higher percentage indicates greater stability.

Colo205 tumors = test: In vivo antitumor assay, Colo205 tumor xenograft mouse model; design: species or system nude mice; details: compared to SN-38 at 10 mg/kg and CPT-11 at 40 mg/kg
Procedure: (§5) Two Zn-DPA conjugates, Zn-DPA-(26) and Zn-DPA-(42) were subjected to an in vivo antitumor assay against Colo205 or MiaPaca2 tumors growing in nude mice following the procedure described below.
(§6) More specifically, Colo205 or MiaPaca2 cells were cultured and maintained in a flask with a RPMI-1640 medium, which was supplemented with 10% FBS. The cells were harvested and innoculated (1×10^6 cells) subcutaneously into the left flank of a adult male nude mouse. Tumor-bearing mice were grouped at the mean tumor volume of approximately 200 mm^3. Tumor dimensions were measured with a digital caliper, and the tumor volume in mm^3 was calculated by the formula: Volume=(length×width^^2)/2.
(§7) The mice were housed in sterilized cages equipped with an air filter and sterile bedding materials at the Laboratory Animal Center of National Health Research Institutes. All mice were fed with sterilized water and chow at libitum under 12-hour light/12-hour dark cycle throughout the study.
(§8) Several dosages of Zn-DPA-(26) and Zn-DPA-(42), were used in this assay, i.e., 40 mg/kg, 20 mg/kg, and 10 mg/kg, p<0.05 vs. vehicle control by one-way ANOVA analysis and the Newman-Keuls multiple comparison test. […]

MiaPaca2 tumors = test: In vivo antitumor assay, MiaPaca2 tumor xenograft mouse model; design: species or system nude mice; details: i.v., 40, 20 and 10 mg/kg, compared to SN-38 at 10 mg/kg and CPT-11 at 40 mg/kg
Procedure: as §5, §6, §7, §8

Work on `CCc1c2c(nc3ccc(OC(=O)N4CCC(N5CCCCC5)CC4)cc13)-c1cc3c(c(=O)n1C2)COC(=O)[C@]3(O)CC` [CPT-11, reference compound] yielded an IC50 (Colo205 cells) of over 10000 nM, an IC50 (MiaPaca2 cells) of 3600 nM and an IC50 [1] of over 10000 nM. It also gave an IC50 (SCM-1 cells) of over 10000 nM.

`CCc1c2c(nc3ccc(O)cc13)-c1cc3c(c(=O)n1C2)COC(=O)[C@]3(O)CC` [SN-38, reference compound] showed an IC50 (Colo205 cells) of 140 nM, an IC50 (MiaPaca2 cells) of 20 nM and an IC50 [1] of 4000 nM. The IC50 (SCM-1 cells) was 640 nM.

For `CCc1c2c(nc3ccc(OC(=O)c4cccc(NC(=O)NCCCCOc5cc(CN(Cc6ccccn6)Cc6ccccn6)cc(CN(Cc6ccccn6)Cc6ccccn6)c5)c4)cc13)-c1cc3c(c(=O)n1C2)COC(=O)[C@@]3(O)CC` [Zn-DPA-(8)], the IC50 (Colo205 cells) was 420 nM, the “Stability (percentage remaining), time = 0” value [2] was 100% and the “Stability (percentage remaining), time = 3 hr” value [2] was 90%. The “Stability (percentage remaining), time = 6 hr” value [2] was 82%, the IC50 [1] was 9300 nM and the IC50 (SCM-1 cells) was 640 nM.

For `CCc1c2c(nc3ccc(OC(=O)CCSC4CC(=O)N(Cc5ccc(C(=O)NCCCCOc6cc(CN(Cc7ccccn7)Cc7ccccn7)cc(CN(Cc7ccccn7)Cc7ccccn7)c6)cc5)C4=O)cc13)-c1cc3c(c(=O)n1C2)COC(=O)[C@]3(O)CC` (stereo partly drawn) [Zn-DPA-(12)], the IC50 (Colo205 cells) was 120 nM, the “Stability (percentage remaining), time = 0” value [2] was 100% and the “Stability (percentage remaining), time = 3 hr” value [2] was 84%. The “Stability (percentage remaining), time = 6 hr” value [2] was 76%, the IC50 [1] was 2900 nM and the IC50 (SCM-1 cells) was 940 nM.

With `CCc1c2c(nc3ccc(OC(=O)c4ccc(CN(CCCCOc5cc(CN(Cc6ccccn6)Cc6ccccn6)cc(CN(Cc6ccccn6)Cc6ccccn6)c5)C(=O)c5c(-c6ccccc6Cl)noc5C)cc4)cc13)-c1cc3c(c(=O)n1C2)COC(=O)[C@]3(O)CC` [Zn-DPA-(25)] the IC50 (Colo205 cells) was 580 nM, the “Stability (percentage remaining), time = 0” value [2] was 100% and the “Stability (percentage remaining), time = 3 hr” value [2] was 90%. For the same molecule, the “Stability (percentage remaining), time = 6 hr” value [2] was 85%, the IC50 [1] was 7200 nM and the IC50 (SCM-1 cells) was 1000 nM.

For `CCc1c2c(nc3ccc(OC(=O)c4ccc(CN(CCCCOc5cc(CN(Cc6ccccn6)Cc6ccccn6)cc(CN(Cc6ccccn6)Cc6ccccn6)c5)C(=O)C5(c6ccc(Cl)cc6)CCCCC5)cc4)cc13)-c1cc3c(c(=O)n1C2)COC(=O)[C@]3(O)CC` [Zn-DPA-(26)], the IC50 (Colo205 cells) was 1100 nM, the IC50 (MiaPaca2 cells) was 120 nM and the “Stability (percentage remaining), time = 0” value [2] was 100%. For the same molecule, the “Stability (percentage remaining), time = 3 hr” value [2] was 99%, the “Stability (percentage remaining), time = 6 hr” value [2] was 97% and the IC50 [1] was over 10000 nM. For the same molecule, the IC50 (SCM-1 cells) was 2600 nM and the antitumor activity (Colo205 tumors; i.v., dosages of 10 mg/kg and 40 mg/kg) was “much higher antitumor activities”.

With `CCc1c2c(nc3ccc(OC(=O)c4ccc(CN(CCOCCOCCNC(=O)c5ccc(CN(CCCCOc6cc(CN(Cc7ccccn7)Cc7ccccn7)cc(CN(Cc7ccccn7)Cc7ccccn7)c6)C(=O)C6(c7ccc(Cl)cc7)CCCCC6)cc5)C(=O)C5(c6ccc(Cl)cc6)CCCCC5)cc4)cc13)-c1cc3c(c(=O)n1C2)COC(=O)[C@]3(O)CC` [Zn-DPA-(42)] the antitumor activity (MiaPaca2 tumors) was “antitumor activities in a dose-dependent manner and much higher antitumor activities”, the IC50 (Colo205 cells) was 3700 nM and the IC50 (MiaPaca2 cells) was 550 nM. The “Stability (percentage remaining), time = 0” value [2] was 100%, the “Stability (percentage remaining), time = 3 hr” value [2] was 99% and the “Stability (percentage remaining), time = 6 hr” value [2] was 98%. The IC50 [1] was over 10000 nM and the antitumor activity (Colo205 tumors; i.v., 40, 20 and 10 mg/kg) was “antitumor activities in a dose-dependent manner and much higher antitumor activities”.
